From US20080182277A1, “Assays and methods using biomarkers” (Genentech, Inc., priority 2005, published 2008)

What was measured:
[1] = system: Colo205 tumor xenografts; experiment: Tumor xenograft study, Colo205; type: in vivo, mice; conditions: Fut-6-positive Colo205; 60 mg/kg/day i.p. on days 0-4
Description: (§1) FIG. 10A-D illustrates differential expression of specific O-glycosylation enzymes in Apo2L/TRAIL-sensitive and -resistant cancer cell lines: (A) Cell viability was measured after incubation with varying doses of Apo2L/TRAIL. IC50 for each cell line was computed as the concentration of Apo2L/TRAIL that gives 50% loss of viability. Each cell viability experiment was repeated at least three times in presence of low (0.5%) and high (10%) fetal bovine serum. Black, grey, or open symbols depict cell lines that are highly sensitive, moderately sensitive, or resistant to Apo2L/TRAIL, respectively. (B) ppGalNAcT-14 mRNA expression levels (probe set 219271 at) in pancreatic and malignant melanoma cell lines. Cell lines are arranged by tissue type and sensitivity to Apo2L/TRAIL. […] Athymic nude mice carrying GalNAcT-3/Fut-6-positive (left panel) or GalNAcT-3/Fut-6-negative (right panel) tumors received vehicle or Apo2L/TRAIL (60 mg/kg/day i.p. on days 0-4) and tumor volume was monitored (mean ±SE, N=10 mice/group).
(§2) Monosaccharide composition of CHO-cell-derived DR5 was obtained after hydrolysis with 4 N TFA. […] Tumor measurements were collected by a digital caliper and tumor volumes calculated using the formula […] (A=length) (B=width)^2. […]

[2] = system: Colo320 tumor xenografts; experiment: Tumor xenograft study, Colo320; type: in vivo, mice; conditions: Fut-6-negative Colo320; 60 mg/kg/day i.p. on days 0-4
Description: as §1, §2

[3] = system: PSN-1 cells; experiment: Immunoblot analysis of the Apo2L/TRAIL-induced caspase cascade, PSN-1; type: cell-based, human; conditions: siRNA 48 h, Apo2L/TRAIL 4 or 8 h
Description: (§3) FIG. 12 illustrates (A) Analysis of the caspase cascade induced by Apo2L/TRAIL. PSN-1 and DLD-1 cells were transfected with siRNAs against ppGalNAcT-14 or Fut-6, respectively, for 48 h. The cells were treated with Apo2L/TRAIL for 4 or 8 h, and cell lysates were analyzed by immunoblot with antibodies specific for caspase-8, Bid, caspase-9, caspase-3, or actin as a loading control. (B) PSN-1 cells were transfected with ppGalNAcT-14 siRNA as in A, treated with Apo2L/TRAIL for 4 h, and caspase-3/7 enzymatic activity in cell lysates was determined. (C) Analysis of the Apo2L/TRAIL DISC. PSN-1 cells were transfected with ppGalNAcT-14 siRNA as in A. FLAG-Apo2L/TRAIL ([…]) was added for 0-60 min, the cells were lysed, and subjected to an immunoprecipitation with an anti-FLAG antibody. DISC-associated FADD, caspase-8, DR4, and were detected by immunoblot. (D) PSN-1 cells were transfected, treated, and subjected to DISC immunoprecipitation as in C, and DISC-associated caspase-8 enzymatic activity was measured as previously described (Sharp et al., J. Biol. Chem., 280:19401 (2005).
(§4) siRNAs were purchased as double stranded RNA oligonucleotides and transfected into the respective cell lines at a final concentration of 25 nM for each siRNA. siRNA duplexes against a non-targeting sequence (Dharmacon) was used as a control. […]

[4] = system: DLD-1 cells; experiment: Immunoblot analysis of the Apo2L/TRAIL-induced caspase cascade, DLD-1; type: cell-based, human; conditions: siRNA 48 h, Apo2L/TRAIL 4 or 8 h
Description: as §3, §4

Apo2L/TRAIL: nontagged soluble recombinant human Apo2L/TRAIL, prepared as described in Lawrence et al.
effect on growth of established tumor xenografts [1]: tumor regression followed by a greatly delayed tumor progression
effect on growth of established tumor xenografts [2]: did not respond
Apo2L/TRAIL-induced caspase processing (caspase-8, Bid, caspase-9, caspase-3) [3]: essentially complete processing of caspase-8
Apo2L/TRAIL-induced caspase processing (caspase-8, Bid, caspase-9, caspase-3) [4]: essentially complete processing of caspase-8
